The text below walks through data of ChEMBL document CHEMBL5126658, “Talaropeptins A and B, Tripeptides with an N-trans-Cinnamoyl Moiety from the Marine-Derived Fungus Talaromyces purpureogenus CX11” (2022).

SMILES strings stand for the structures. Converted amounts (≈) assume the structure as drawn.

Common to all, as to format: functional
Assay [1] concerns Cryptococcus neoformans. Description: Antifungal activity against Cryptococcus neoformans GOYJ11988 assessed as fungal growth inhibition incubated for 24 hrs by serial dilution method.
In assay [2] the test system is Fusarium oxysporum. Description: Antifungal activity against Fusarium oxysporum ATCC 28856 assessed as fungal growth inhibition incubated for 24 hrs by serial dilution method.
Assay [3] has as its system Candida albicans. Description: Antifungal activity against Candida albicans SC5314 assessed as fungal growth inhibition incubated for 24 hrs by serial dilution method.

One may read the MIC as the lowest concentration that inhibits growth of the organism. `C[C@@H]1C(=O)N2CCC[C@H]2[C@]2(O)O[C@@](C)(NC(=O)/C=C/c3ccccc3)C(=O)N12`: the minimum inhibitory concentration (MIC) in assay [1] is 80 µg/mL (≈ 208 µM); in assay [2], 25 µg/mL (≈ 64.9 µM); in assay [3], 40 µg/mL (≈ 104 µM).
The like results for `C[C@@H]1C(=O)N2CCC[C@H]2[C@]2(O)O[C@@](CO)(NC(=O)/C=C/c3ccccc3)C(=O)N12` were, in that order, 80 µg/mL (≈ 199 µM), 12.5 µg/mL (≈ 31.1 µM) and 40 µg/mL (≈ 99.6 µM).
